Measured values reported in patent publication US7470669B2, “Isolated polypeptide comprising a leptin fragment” (Serono Genetics Institute, S.A., priority 1999, dated 2008).

Key:
Type in all cases: in vivo, mouse
[1] = system: db^Pas/db^Pas mice; assay: Postprandial plasma TG response after high-fat test meal in db^Pas/db^Pas mice
Experimental: (§1) FIGS. 1A and 1B show the effect of leptin on postprandial plasma TG response in db/db and db^Pas/db^Pas mice. Overnight-fasted db/db (A), db^Pas/db^Pas (B) mice were gavage-fed a high-fat test meal and immediately injected intravenously (db/db) or intraperitoneally (db^Pas/db^Pas) with saline (open symbols) or 50 μg mouse recombinant leptin (closed symbols). At the indicated times, blood was collected from the tail (A) or orbital (B) vein, plasma was separated by centrifugation, and plasma TG concentrations were determined using an enzymatic kit. Each point represents the mean±SEM (db/db: saline, n=4, leptin, n=3; db^Pas/db^Pas: saline, n=6, leptin, n=7). The average plasma lipid response in 10 control C57BL6 mice is shown as a dotted line in both A and B. In a separate experiment, shown as an inset for each strain of mice, overnight fasted db/db (●) or db^Pas/db^Pas (▪) mice were gavage-fed the test meal and immediately injected intravenously with increasing concentrations of leptin. The plasma lipid response was then measured as in A and B. The area under the response curve (AUC) was then calculated using a triangulation method on Microsoft Excel between 0 and 4 hr (mg TG·h/mL). Values are presented as % of control value (test meal alone obtained in A or B). Each point represents the mean of at least 3 mice.
FIGS. 7A and 7B show a comparison of the effect of human and mouse leptin on LSR activity in rat hepatocytes and on postprandial increase in plasma TG in db^Pas/db^Pas mice. For FIG. 7A, primary cultures of rat hepatocytes were incubated 30 min at 37° C. without (open bar) or with 10 ng/mL recombinant human (solid bar) or mouse (hatched bar) leptin in Buffer A. Oleate (0.5 mM) and ^125I-LDL (20 μg/mL) were added and the cells were incubated 2 h at 37° C. The media were removed and were analyzed for TCA-soluble degradation products. The mean of duplicate determinations is shown. For FIG. 7B, db^Pas/db^Pas mice were given a test meal as previously described, followed immediately by injection i.p. of saline (open bar, n=4), human leptin (1 μg/animal; solid bar, n=3) or mouse leptin (0.25 μg/animal; hatched bar; n=3). The data represent the difference in TG concentrations measured at t=0 and the average of the concentrations at 3 and 4 hours. Results are shown as mean±SEM.
(§2) Mice that were fasted for 2-3 hours were gavage-fed 300 μL of a test meal consisting of 60% fat (37% saturated, 27% mono-, and 36% polyunsaturated fatty acids), 20% protein and 20% carbohydrate, and providing 56 kcal of energy/kg (1.5 g butter, 1.5 g sunflower oil, 2.5 g nonfat dry milk, 2.5 g sucrose and 3 ml water). […] TG concentrations were determined using a commercially available enzymatic kit with controls included in each assay (Precinorm L, Roche-Boehringer Mannheim; Lyotrol N, BioMérieux).

[2] = system: db/db mice; assay: Postprandial plasma TG response after high-fat test meal in db/db mice
Experimental: as §1
as §2, with “water). Immediately after the meal, the animals were injected intravenously (db/db) or intraperitoneally (db^Pas/db^Pas) with either 200 μL physiological saline or 200 μL of the same solution containing recombinant mouse leptin.” for “water).”, “BioMérieux). […]” for “BioMérieux).”

[3] = system: lipase; assay: Postheparin lipolytic activity in db^Pas/db^Pas mice; settings: 50 μg/animal, t=2 h after test meal
Experimental: FIG. 12 contains a Table that presents results showing the effect of test meal with and without leptin injection on postheparin lipolytic activity in db^Pas/db^Pas mice. Animals were gavaged with the test-meal and injected at the same time with 50 μg leptin or physiological saline as described previously (t=0 h). After 1 h, the mice were injected with heparin and blood samples were taken at the peak of postprandial triglyceridemia (t=2 h). Lipase activity was measured in the postheparin plasma as described in the Examples section herein, and is reported here as the mean±SEM (n=3 animals for each condition; ns=not significant).
Mice were gavage-fed and injected with leptin or control solutions as described above. At t=1 h, the mice were injected subcutaneously with heparin (100 IU/kg body weight). At t=2 h, the animals were bled and the plasma was immediately separated by centrifugation. Lipase activity was determined according to Iverius and Brunzell (1985) using 20% Lipoven (Fresenius France Pharma, Louviers, France) as the source of TG. The assay was performed using 25 μL postheparin plasma in 0.15 M NaCl (200 μL total volume), and in the presence of 10 μL heat-inactivated (56° C., 30 min) human plasma as a source of apoC's. Before and at the end of the incubation, FFA concentrations were determined using an enzymatic kit.

[4] = 250 ng leptin per animal, AUC 0-4 h
[5] = 500 ng leptin per animal (maximum effect)

leptin: plasma protein of 16 kDa produced by adipocytes; recombinant human or mouse leptin, species depends on the experiment
area under the TG curve [1, 4]: significant reduction
decrease of the area under the postprandial TG curve [1, 5]: > 65%
amplitude of the triglyceride response ([1]; single bolus 50 μg mouse recombinant leptin i.p. at time of test meal): decreased the amplitude of the triglyceride response
area under the TG curve [2, 4]: significant reduction
decrease of the area under the postprandial TG curve [2, 5]: > 80%
amplitude of the triglyceride response ([2]; single bolus 50 μg mouse recombinant leptin i.v. at time of test meal): decreased the amplitude of the triglyceride response
lipase activity released in serum after heparin injections [3]: did not significantly modify lipase activity
